Laboratory results published in patent US6599932B1, “Alpha, beta-unsaturated sulfones for treating proliferative disorders” (Temple University-Of The Commonwealth System of Higher …, priority 2000, dated 2003).

Legend:
Assay type in all cases: cell-based
Set-up in all cases: dose or concentration left out as unconfirmed
[1] = test system: prostate tumor cell line DU-145; assay: Viability assay, Trypan blue exclusion, prostate tumor cell line DU-145; conditions: for cytotoxicity: Homo sapiens, DU-145, 96 hours, read-out: percent cell death (% Death), DU145; for percent cell death (% Death), DU145: 96 hours
Method: (§1) The effect of the sulfones on normal fibroblasts and on tumor cells of prostate, colon, lung and breast origin was examined utilizing the following cell lines: prostate tumor cell line DU-145; colorectal carcinoma cell line DLD-1; non-small cell lung carcinoma cell line H157; and breast tumor cell line BT-20. BT-20 is an estrogen-unresponsive cell line. NIH/3T3 and HFL are normal murine and human fibroblasts, respectively. BT-20, DLD-1 and H157 were grown in Dulbecco's modified Eagle's medium (DMEM) containing 10% fetal bovine serum supplemented with penicillin and streptomycin. DU145 was cultured in RPMI with 10% fetal bovine serum containing penicillin and streptomycin. NIH3T3 and HFL cells were grown in DMEM containing 10% calf serum supplemented with penicillin and streptomycin. All cell cultures were maintained at 37° C. in a humidified atmosphere of 5% CO2.
(§2) Cells were treated with test compound […] concentration and cell viability was determined after 96 hours by the Trypan blue exclusion method. Activity for each compound is reported as a range of cell induced death (% Death) with the lowest activity in the range of 5-10%.

[2] = test system: breast tumor cell line BT-20; assay: Viability assay, Trypan blue exclusion, breast tumor cell line BT-20; conditions: for cytotoxicity: Homo sapiens, BT-20, 96 hours, read-out: percent cell death (% Death), BT20; for percent cell death (% Death), BT20: 96 hours
Method: as §1, §2

[3] = test system: colorectal carcinoma cell line DLD-1; assay: Viability assay, Trypan blue exclusion, colorectal carcinoma cell line DLD-1; conditions: for cytotoxicity: Homo sapiens, DLD-1, 96 hours, read-out: percent cell death (% Death), DLD-1; for percent cell death (% Death), DLD-1: 96 hours
Method: as §1, §2

[4] = test system: non-small cell lung carcinoma cell line H157; assay: Viability assay, Trypan blue exclusion, non-small cell lung carcinoma cell line H157; conditions: for cytotoxicity: Homo sapiens, NCI-H157, 96 hours, read-out: percent cell death (% Death), H157; for percent cell death (% Death), H157: 96 hours
Method: as §1, §2

| SMILES | cytotoxicity [1] [%] | cytotoxicity [2] [%] | cytotoxicity [3] [%] | cytotoxicity [4] [%] | percent cell death (% Death), DU145 [1] | percent cell death (% Death), BT20 [2] | percent cell death (% Death), DLD-1 [3] | percent cell death (% Death), H157 [4] |
| --- | --- | --- | --- | --- | --- | --- | --- | --- |
| O=S(=O)(/C=C/c1ccc(Br)s1)Cc1ccc(F)cc1 [Example 16, (E)-5-Bromo-2-thiopheneethenyl-4-fluorobenzylsulfone] | 5 to 10 | 5 to 10 | 5 to 10 | 5 to 10 |  |  |  |  |
| O=[N+]([O-])c1cc(/C=C/S(=O)(=O)Cc2ccc(Cl)cc2Cl)cs1 [Example 57, (E)-2-Nitro-4-thiopheneethenyl-2,4-dichlorobenzylsulfone] | 10 to 15 | 5 to 10 | 10 to 15 | 5 to 10 |  |  |  |  |
| O=S1(=O)C=CC(/C=C/S(=O)(=O)Cc2ccc(Cl)cc2Cl)=C1 [Example 37, (E)-3-Thiophene-1,1-dioxoethenyl-2,4-dichlorobenzylsulfone] |  |  |  |  | ++ ((++)=10-15%) | ++ ((++)=10-15%) | ++ ((++)=10-15%) | ++ ((++)=10-15%) |
| O=S(=O)(/C=C/c1cccc2ccccc12)Cc1ccc(Cl)cc1 [Example 64, (E)-1-Naphthaleneethenyl-4-chlorobenzylsulfone] | 10 to 15 | 10 to 15 | 10 to 15 | 10 to 15 |  |  |  |  |
| COc1ccc(CS(=O)(=O)/C=C/c2ccsc2)cc1 [Example 27, (E)-3-Thiopheneethenyl-4-methoxybenzylsulfone] | 50 to 60 | 50 to 60 | 50 to 60 | 50 to 60 |  |  |  |  |
| O=S(=O)(/C=C/c1cccnc1)Cc1ccc(Cl)cc1 [Example 5, (E)-3-Pyridineethenyl-4-chlorobenzylsulfone] | 5 to 10 | 5 to 10 | 5 to 10 | 5 to 10 |  |  |  |  |
| O=S(=O)(/C=C/c1c2ccccc2cc2ccccc12)Cc1ccc(Br)cc1 [Example 76, (E)-9-Anthraceneethenyl-4-bromobenzylsulfone] | 50 to 60 | 50 to 60 | 40 to 50 | 40 to 50 |  |  |  |  |
| COc1ccc(CS(=O)(=O)/C=C/C2=CS(=O)(=O)C=C2)cc1 [Example 36, (E)-3-Thiophene-1,1-dioxoethenyl-4-methoxybenzylsulfone] |  |  |  |  | + ((+)=5-10%) | + ((+)=5-10%) | + ((+)=5-10%) | + ((+)=5-10%) |
| O=S(=O)(/C=C/c1ccccn1)Cc1ccc(F)cc1 [Example 1, (E)-2-Pyridineethenyl-4-fluorobenzylsulfone] | 5 to 10 | 5 to 10 | 5 to 10 | 5 to 10 |  |  |  |  |
| O=S(=O)(/C=C/c1cccs1)Cc1ccc(F)cc1 [Example 10, (E)-2-Thiopheneethenyl-4-fluorobenzylsulfone] | 5 to 10 | 5 to 10 | 5 to 10 | 5 to 10 |  |  |  |  |
| O=[N+]([O-])c1cc(/C=C/S(=O)(=O)Cc2ccc(I)cc2)cs1 [Example 56, (E)-2-Nitro-4-thiopheneethenyl-4-iodobenzylsulfone] | 5 to 10 | 5 to 10 | 5 to 10 | 5 to 10 |  |  |  |  |
| O=S(=O)(/C=C/c1ccoc1)Cc1ccc(F)cc1 [Example 41, (E)-3-Furanethenyl-4-fluorobenzylsulfone] | 5 to 10 | 5 to 10 | 5 to 10 | 5 to 10 |  |  |  |  |
| O=S(=O)(/C=C/c1c2ccccc2cc2ccccc12)Cc1ccc(F)cc1 [Example 74, (E)-9-Anthraceneethenyl-4-fluorobenzylsulfone] | 40 to 50 | 50 to 60 | 50 to 60 | > 80 |  |  |  |  |
| O=S(=O)(/C=C/c1ccc(Cl)cc1)Cc1cccc2ccccc12 [Example 69, (E)-4-Chlorostyryl-1-(naphthylmethyl)sulfone] | 5 to 10 | 5 to 10 | 5 to 10 | 5 to 10 |  |  |  |  |
| N#Cc1ccc(CS(=O)(=O)/C=C/c2ccsc2)cc1 [Example 31, (E)-3-Thiopheneethenyl-4-cyanobenzylsulfone] | 5 to 10 | 5 to 10 | 5 to 10 | 5 to 10 |  |  |  |  |
| O=S(=O)(/C=C/c1ccsc1)Cc1ccc(Cl)cc1 [Example 23, (E)-3-Thiopheneethenyl-4-chlorobenzylsulfone] | 40 to 50 | 40 to 50 | 40 to 50 | 40 to 50 |  |  |  |  |
| O=S(=O)(/C=C/c1ccc2ccccc2c1)Cc1ccc(Br)cc1 [Example 67, (E)-2-Naphthaleneethenyl-4-bromobenzylsulfone] | 5 to 10 | 5 to 10 | 5 to 10 | 5 to 10 |  |  |  |  |
| O=S(=O)(/C=C/c1cc(Br)cs1)Cc1ccc(Br)cc1 [Example 15, (E)-4-Bromo-2-thiopheneethenyl-4-bromobenzylsulfone] | 5 to 10 | 5 to 10 | 5 to 10 | 5 to 10 |  |  |  |  |
| O=S(=O)(/C=C/c1cccnc1)Cc1ccc(F)cc1 [Example 2, (E)-3-Pyridineethenyl-4-fluorobenzylsulfone] | 5 to 10 | 5 to 10 | 5 to 10 | 5 to 10 |  |  |  |  |
| Cc1ccc(CS(=O)(=O)/C=C/c2ccsc2)cc1 [Example 26, (E)-3-Thiopheneethenyl-4-methylbenzylsulfone] | 5 to 10 | 5 to 10 | 5 to 10 | 5 to 10 |  |  |  |  |
| O=S(=O)(/C=C/c1ccc2ccccc2c1)Cc1ccc(F)cc1 [Example 63, (E)-2-Naphthaleneethenyl-4-fluorobenzylsulfone] | 5 to 10 | 5 to 10 | 5 to 10 | 5 to 10 |  |  |  |  |
| O=S(=O)(/C=C/c1ccoc1)Cc1ccc(Cl)cc1Cl [Example 48, (E)-3-Furanethenyl-2,4-dichlorobenzylsulfone] | > 80 | > 80 | > 80 | > 80 |  |  |  |  |
| O=S(=O)(/C=C/c1ccccn1)Cc1ccc(Cl)cc1 [Example 4, (E)-2-Pyridineethenyl-4-chlorobenzylsulfone] | 5 to 10 | 5 to 10 | 5 to 10 | 5 to 10 |  |  |  |  |
| O=S(=O)(/C=C/c1ccoc1)Cc1ccc(C(F)(F)F)cc1 [Example 47, (E)-3-Furanethenyl-4-trifluoromethylbenzylsulfone] |  |  |  |  | ++++ ((++++)=50-60%) | ++++ ((++++)=50-60%) | ++++ ((++++)=50-60%) | ++++ ((++++)=50-60%) |
| O=S(=O)(/C=C/c1ccc2ccccc2c1)Cc1ccc(Cl)cc1 [Example 65, (E)-2-Naphthaleneethenyl-4-chlorobenzylsulfone] | 5 to 10 | 5 to 10 | 5 to 10 | 5 to 10 |  |  |  |  |
| O=[N+]([O-])c1ccccc1/C=C/S(=O)(=O)Cc1cccc2ccccc12 [Example 71, (E)-2-Nitrostyryl-1-(naphthylmethyl)sulfone] | 40 to 50 | 40 to 50 |  |  |  |  |  |  |
| O=[N+]([O-])c1cccc(/C=C/S(=O)(=O)Cc2cccc3ccccc23)c1 [Example 72, (E)-3-Nitrostyryl-1-(naphthylmethyl)sulfone] | 5 to 10 | 5 to 10 |  |  |  |  |  |  |
